Measurements published in patent publication EP3845222A1, “MICROENCAPSULATED FORMULATION COMPRISING DIOSMIN, TROXERUTIN AND COUMARINS, COMPOSITIONS THEREOF AND USE THEREOF FOR THE TREATMENT OF CIRCULATORY DISORDERS” (Pharma Line S.r.l., priority 2019, dated 2021).

System: ligated saphenous vein (LSV)
Test: In vivo ligated saphenous vein damage: histopathological examination (H&E)
Set-up: species or system NMRI mice
Conditions: control (non-ligated) mice treated for 7 days; also no signs of tissue inflammation

CCC(C)(C)C(=O)O[C@H]1C[C@@H](C)C=C2C=C[C@H](C)[C@H](CC[C@@H]3C[C@@H](O)CC(=O)O3)[C@H]21 [Simvastatin]
changes in the lumen of the vessel: no significant changes
